Entries after “also recorded” stand apart in the source; their conditions may differ.
Test system: primordial-to-primary follicle transition
Assay: In vitro organ culture of mouse ovaries with compound, H&E histology and counting of primordial, primary and secondary follicles
Conditions: for effect on primordial-to-primary follicle transition / primordial follicle activation: in vitro cultured mouse ovaries, concentration not given
Method: Ovaries obtained from mice were washed twice with culture medium. Antagonists or agonists to be tested were dissolved in suitable solvents and added to the medium. As a control medium comprising solvent without the antagonist or agonist was used. One of the ovaries was cultured in a control medium and another was cultured with the antagonist or agonist. The tested antagonists or agonists and their concentrations are outlined in table 2.
Ovaries were incubated with antagonist at 37° C. and 5% CO2 for 24 and 96 hours, respectively (see table 3).
Cultures ovaries were fixed, embedded in paraffin and sliced microscopy. The sectioned ovaries were stained with hematoxylin and eosin (H&E) to visualize the morphology of the ovary by microscopy.
The number of primordial, primary and secondary follicles was determined, and it was determined whether the antagonist or agonist was capable of regulating folliculogenesis.
C57BL/6j×CBA F1 hybrid mice (Janvier Labs, France) were housed and bred in the animal facilities at Department of Biomedicine, Aarhus University. Animals were housed in a 12:12 h controlled light-dark environment and were provided with food and water ad libitum. 7-day-old female pups were used for the study.
Pups were sacrificed and ovaries were excised. Using a stereomicroscope MZ75 (Leica Microsystems, Germany), excess tissue was removed. During the dissection, ovaries were kept at 37° C. in culture medium: aMEM (Thermo Fisher) supplemented with 10% FBS (Thermo Fisher), 100 mIU/mL of FSH (Sigma-Aldrich), 100 IU/mL penicillin (Thermo Fisher), 100 μg/mL streptomycin (Thermo Fisher) and 1% Insulin-Transferrin-Selenium (Thermo Fisher). Isolated ovaries were transferred into well inserts (PET membrane ThinCert, 0.4 μm-pore size; Greiner bio-one) in 24-well plates (Tissue culture treated, cell culture plates; Costar). 200-300 μL of culture medium was added to the well below the insert and up to two ovaries were placed on the membrane of each insert. The culture medium was supplemented with different concentrations of the tested compounds; bpV(HOpic) (Sigma-Aldrich), Temsirolimus (Sigma-Aldrich), Ketotifen (Sigma-Aldrich), 3PO (Sigma-Aldrich), Dorsomorphin (Sigma-Aldrich), AICAR (Sigma-Aldrich), NCG (Sigma-Aldrich), and Dyphylline (Cayman Chemical). Up to six wells in the 24-well plate were used for inserts. Sterile dH2O was added to the rest of the wells to ensure humidity and reduce evaporation. The ovaries were cultured at 37° C., 5% CO2 for four days. 150 μL of medium was replaced every other day with fresh culture medium.
Ovaries kept in organ culture for four days were fixed for 24 hours in 4% paraformaldehyde solution at 4° C. After fixation, ovaries were dehydrated in ethanol series using 70%, 96% and 99.9% ethanol. Xylene was used as clearing agent before the ovaries were infiltrated in paraffin wax. 5 μm-sections of samples in paraffin were cut using a microtome (Cut 6062, SLEE medical, Germany). Paraffin sections were mounted on glass slides, paraffin was melted at 60° C., and the samples were stained with hematoxylin and eosin (using standard protocols).
The samples were deparaffinized by incubating in xylene for 2×15 min. and subsequently rehydrated in series of ethanol; 3×2 min. in 99.9% ethanol, 2 min. in 96% ethanol, and 2 min. in 70% ethanol. The samples were then rinsed in dH2O, stained in hematoxylin for 40 sec., rinsed in dH2O for 5 min., and stained in eosin for 46 sec. The samples were dehydrated in ethanol: 2×2 min. in 96% ethanol, 2×2 min in 99.9% ethanol, and finally cleared up in xylene for at least 30 min before mounting the samples using Eukitt mounting medium (Sigma-Aldrich) and cover glass.
The number of follicles at each developmental stage was counted using an inverted research microscope (DM14000B, Leica Microsystems, Germany). The follicles of every 3rd to 4th section of each ovary were counted and the distribution of follicles in the different stages in percentage was determined.

[1] = Table 1, effect with a figure cited
[2] = Table 2, effect with a figure cited

In the case of CCOc1cc2ncc(C#N)c(Nc3ccc(OCc4ccccn4)c(Cl)c3)c2cc1NC(=O)/C=C/CN(C)C [AVE1642, (E)-N-[4-[3-chloro-4-(pyridin-2-ylmethoxy)anilino]-3-cyano-7-ethoxyquinolin-6-yl]-4-(dimethylamino)but-2-enamide], the Effect (Table 1, marked (ongoing)) is reported as “promotes” and the Effect (Table 2, marked (ongoing)) is reported as “promotes”.
With Cc1cn(-c2cc(NC(=O)c3ccc(C)c(Nc4nccc(-c5cccnc5)n4)c3)cc(C(F)(F)F)c2)cn1 [Pirotinib, 4-methyl-N-[3-(4-methylimidazol-1-yl)-5-(trifluoromethyl)phenyl]-3-[(4-pyridin-3-ylpyrimidin-2-yl)amino]benzamide] the Effect (Table 1, marked (ongoing)) was “promotes” and the Effect (Table 2, marked (ongoing)) was “promotes”.
CN(C)C/C=C/C(=O)Nc1cc2c(Nc3ccc(F)c(Cl)c3)ncnc2cc1O[C@H]1CCOC1 [Afatinib, (E)-N-[4-(3-chloro-4-fluoroanilino)-7-[(3S)-oxolan-3-yl]oxyquinazolin-6-yl]-4-(dimethylamino)but-2-enamide] was tested, and the Effect (Table 1, marked (ongoing)) was “promotes” and the Effect (Table 2, marked (ongoing)) was “promotes”.
In the case of Cn1c(=O)c2[nH]cnc2n(C)c1=O [Theophylline, 1,3-dimethyl-7H-purine-2,6-dione], the Effect (Table 1, marked (ongoing)) is reported as “promotes” and the Effect (Table 2, marked (ongoing)) is reported as “promotes”.
For NC(=O)c1ncn([C@@H]2O[C@H](CO)[C@@H](O)[C@H]2O)c1N [AICAR, 5-aminoimidazole-4-carboxamide-1β-D-ribofuranoside], the “follicles (stage not given; activation of primordial follicles inhibited)” value (0.5 mM AICAR (n=1), data not shown) was 83.83±3.06%, the primary follicles (1 mM AICAR, four days) was 10.82±4.98% and the primordial follicles (1 mM AICAR, four days) was 86.02±5.84%. For the same molecule, the secondary follicles (1 mM AICAR, four days) was 3.0±3.09%, the “health of growing follicles in treated ovaries” value (AICAR 0.1-1 mM, four days) was “growing follicles within the ovary tended to appear unhealthy; also recorded: too harsh for the growing follicles” and the Effect [1] was “promotes”. For the same molecule, the Effect [2] was “promotes” and the “effect on primordial-to-primary follicle transition / primordial follicle activation” value was “suppress the primordial-to-primary follicle transition”.
For CCOc1cc(C(C)(C)C)ccc1C1=N[C@@](C)(c2ccc(Cl)cc2)[C@@](C)(c2ccc(Cl)cc2)N1C(=O)N1CCN(CCCS(C)(=O)=O)CC1 [RO5045337, [(4S,5R)-2-(4-tert-butyl-2-ethoxyphenyl)-4,5-bis(4-chlorophenyl)-4,5-dimethylimidazol-1-yl]-[4-(3-methylsulfonylpropyl)piperazin-1-yl]methanone], the Effect (Table 1, marked (ongoing)) was “promotes” and the Effect (Table 2, marked (ongoing)) was “promotes”.
For CO[C@H]1C[C@@H]2CC[C@@H](C)[C@@](O)(O2)C(=O)C(=O)N2CCCC[C@H]2C(=O)O[C@H]([C@H](C)C[C@@H]2CC[C@@H](OC(=O)C(C)(CO)CO)[C@H](OC)C2)CC(=O)[C@H](C)/C=C(\C)[C@@H](O)[C@@H](OC)C(=O)[C@H](C)C[C@H](C)/C=C/C=C/C=C/1C [Temsirolimus], the “effect on primordial-to-primary follicle transition / primordial follicle activation” value was “decrease the rate of primordial-to-primary transition”.
For CS(=O)(=O)N1CCN(Cc2cc3nc(-c4cccc5[nH]ncc45)nc(N4CCOCC4)c3s2)CC1 [Pictilisib, 2-(1H-indazol-4-yl)-6-(4-methanesulfonylpiperazin-1-ylmethyl)-4-morpholin-4-ylthieno(3,2-d)pyrimidine], the Effect (Table 1, marked (ongoing)) was “promotes” and the Effect (Table 2, marked (ongoing)) was “promotes”.
In the case of CN1CCC(=C2c3ccccc3CC(=O)c3sccc32)CC1 [Ketotifen, 4,9-dihydro-4-(1-methyl-4-piper-idylidende)-10H-benzo(4,5)cyclohepta(1,2,b)thiophen-10-one], the “less primary follicles than control” value (85 nM Ketotifen, 96 hours) is reported as ~44%, the “less secondary follicles than control” value (85 nM Ketotifen, 96 hours) is reported as ~65% and the “more primordial follicles than control” value (85 nM Ketotifen, 96 hours) is reported as “approximately 9%”. For the same molecule, the Effect [1] was “inhibits follicle”, the Effect [2] was “inhibits follicle” and the “effect on primordial-to-primary follicle transition / primordial follicle activation” value was “significantly more primordial follicles”.
For O=C1CCc2cc(OCCCCc3nnnn3C3CCCCC3)ccc2N1 [Cilostazol, 6-[4-(1-cyclohexyltetrazol-5-yl)butoxy]-3,4-dihydro-1H-quinolin-2-one], the Effect (Table 1, marked (ongoing)) was “promotes” and the Effect (Table 2, marked (ongoing)) was “promotes”.
For CNC(=O)c1cc(Oc2ccc(NC(=O)Nc3ccc(Cl)c(C(F)(F)F)c3)cc2)ccn1 [BIIB022, 4-[4-[[4-chloro-3-(trifluoromethyl)phenyl]carbamoylamino]phenoxy]-N-methyl-pyridine-2-carboxamide], the Effect (Table 1, marked (ongoing)) was “promotes” and the Effect (Table 2, marked (ongoing)) was “promotes”.
Cc1c(NC(=O)OC[C@@H]2COCCN2)cn2ncnc(Nc3ccc4c(cnn4Cc4cccc(F)c4)c3)c12 [BMS-599626, [(3S)-morpholin-3-yl]methyl N-[4-[[1-[(3-fluorophenyl)methyl]indazol-5-yl]amino]-5-methylpyrrolo[2,1-f][1,2,4]triazin-6-yl]carbamate] was tested, and the Effect (Table 1, marked (ongoing)) was “promotes” and the Effect (Table 2, marked (ongoing)) was “promotes”.
In the case of OCCN(CCO)c1nc(N2CCCCC2)c2nc(N(CCO)CCO)nc(N3CCCCC3)c2n1 [Dipyridamole, 2-[[2-[bis(2-hydroxyethyl)amino]-4,8-di(piperidin-1-yl)pyrimido[5,4-d]pyrimidin-6-yl]-(2-hydroxyethyl)amino]ethanol], the Effect (Table 1, marked (ongoing)) is reported as “promotes” and the Effect (Table 2, marked (ongoing)) is reported as “promotes”.
In the case of O=C(O)c1cc(N(Cc2ccccc2O)Cc2cc(O)ccc2O)ccc1O [Lavendustin, 5-amino-((N-2,5-dihydroxybenzyl)-N′-2-hydroxybenzyl)aminosalicylic acid], the Effect (Table 1, marked (ongoing)) is reported as “promotes” and the Effect (Table 2, marked (ongoing)) is reported as “promotes”.
COc1ncc(-c2nc3c(n2C(C)C)[C@H](c2ccc(Cl)cc2)N(c2cc(Cl)cn(C)c2=O)C3=O)c(OC)n1 [HDM201, (6S)-5-(5-chloro-1,2-dihydro-1-methyl-2-oxo-3-pyridinyl)-6-(4-chlorophenyl)-2-(2,4-dimethoxy-5-pyrimidinyl)-5,6-dihydro-1-(1-methylethyl)-Pyrrolo[3,4-d]imidazol-4(1H)-one] was tested, and the Effect (Table 1, marked (ongoing)) was “promotes” and the Effect (Table 2, marked (ongoing)) was “promotes”.
With CC(=O)CCCCn1c(=O)c2c(ncn2C)n(C)c1=O [Pentoxifylline, 3,7-dimethyl-1-(5-oxohexyl)purine-2,6-dione] the Effect (Table 1, marked (ongoing)) was “promotes” and the Effect (Table 2, marked (ongoing)) was “promotes”.
For NC(=O)N[C@@H](CCC(=O)O)C(=O)O [NCG, (2S)-2-(carbamoylamino)pentanedioic acid], the “effect on follicle distribution” value (10, 20 and 30 μM NCG, 96 hours) was “has the potential to activate primordial follicle distribution”, the Effect [1] was “promotesfollicle” and the Effect [2] was “promotesfollicle”.
“Cixutumumab: fully human IgG1 monoclonal antibody directed against the human insulin-like growth factor-1 receptor” was tested, and the Effect (Table 1, marked (ongoing)) was “promotes” and the Effect (Table 2, marked (ongoing)) was “promotes”.
For C[C@H]1Cc2ccccc2N1C(=O)Cc1nc(N2CCOCC2)cc(=O)[nH]1 [SAR260301, (S)-2-(2-(2-Methylindolin-1-yl)-2-oxoethyl)-6-morpholinopyrimidin-4(3H)-one], the Effect (Table 1, marked (ongoing)) was “promotes” and the Effect (Table 2, marked (ongoing)) was “promotes”.
For c1ccc2c(CCNc3ccc(Nc4ccncc4)cc3)c[nH]c2c1 [Serdemetan, 1-N-[2-(1H-indol-3-yl)ethyl]-4-N-pyridin-4-ylbenzene-1,4-diamine], the Effect (Table 1, marked (ongoing)) was “promotes” and the Effect (Table 2, marked (ongoing)) was “promotes”.
With CC1(O)CC(c2nc(-c3ccc4ccc(-c5ccccc5)nc4c3)c3c(N)nccn23)C1 (stereo not shown) [Linsitinib, 3-[8-amino-1-(2-phenylquinolin-7-yl)imidazo[1,5-a]pyrazin-3-yl]-1-methylcyclobutan-1-ol] the Effect (Table 1, marked (ongoing)) was “promotes” and the Effect (Table 2, marked (ongoing)) was “promotes”.

From US11666561B2, “Compounds for use in regulating follicle maturation” (AARHUS UNIVERSITET, priority 2017, dated 2023)
